Laboratory results reported in patent US8987234B2, “Complex for treatment and/or prophylaxis of parasitic infections” (IPCA Laboratories Ltd., priority 2009, dated 2015).

Key:
physchem = format: physicochemical
[1] = tablet formulation, Malarone label; cited from earlier work
[2] = Intrinsic dissolution/solubility under standard USP conditions (40% isopropyl alcohol with phosphate buffer pH 8.0); format: physicochemical
[3] = Comparative rat pharmacokinetic study, plasma analyzed by LC MS/MS; format: in vivo, albino Wistar rats
Procedure: Comparative pharmacokinetic study of complex of example-I at two doses with physical mixtures of Atovaquone and Proguanil hydrochloride (Malarone) was carried for profiling of bioavailability of Atovaquone, Proguanil and Cycloguanil from all three samples. Four groups of 13-14 weeks old five albino Wistar rats were made through random selection. Group I served as a vehicle control and received only 0.5% sodium carboxymethyl cellulose, group II and group III received two different doses of complex of Example I, and group IV received a physical mixture of Atovaquone and Proguanil hydrochloride (Malarone). The dose volume used for this study was 10 ml/Kg of body weight. Orbital sinus was used as blood collection site and the blood was collected in EDTA coated microcentrifuge tubes at different time points between 0 min (pre dose) to 240 hrs. Plasma samples were analyzed by LC MS/MS. Comparative pharmacokinetic profiles of Atovaquone, Proguanil and Cycloguanil are as given below in table 3, 4, and 5 respectively: […]

O=C1C(O)=C([C@H]2CC[C@H](c3ccc(Cl)cc3)CC2)C(=O)c2ccccc21 [Atovaquone, trans-2-[4-(4-chlorophenyl)cyclohexyl]-3-hydroxy-1,4-naphthoquinone]
pKa (physchem): 8.39
absolute bioavailability of Atovaquone [1]: 23%

CC(C)NC(=N)NC(=N)Nc1ccc(Cl)cc1.O=C1C(O)=C([C@H]2CC[C@H](c3ccc(Cl)cc3)CC2)C(=O)c2ccccc21 [Complex, trans-Atovaquone-Proguanil complex (1:1)]
% Dissolution Atovaquone ([2]; 1 Hrs.): 2.64%
% Dissolution Proguanil ([2]; 1 Hrs.): 1.97%
% Dissolution Atovaquone ([2]; 2 Hrs.): 5.61%
% Dissolution Proguanil ([2]; 2 Hrs.): 3.64%
% Dissolution Atovaquone ([2]; 3 Hrs.): 7.72%
% Dissolution Proguanil ([2]; 3 Hrs.): 5.22%
% Dissolution Atovaquone ([2]; 4 Hrs.): 9.75%
% Dissolution Proguanil ([2]; 4 Hrs.): 6.38%
intrinsic solubility of Atovaquone compared with physical mixture of Atovaquone-Proguanil ([2]; 40% isopropyl alcohol with phosphate buffer pH 8.0): almost doubled
Atovaquone bioavailability increase versus corresponding ratio of physical mixture [3]: increased by at least two times
AUC0-inf of Atovaquone ([3]; Atovaquone dose 6.166 mg/kg): 298501.894 ng/hrxml
Cmax of Atovaquone ([3]; Atovaquone dose 6.166 mg/kg): 4925.009 ng/mL
MRT of Atovaquone ([3]; Atovaquone dose 6.166 mg/kg): 39.240 h
T1/2 of Atovaquone ([3]; Atovaquone dose 6.166 mg/kg): 26.833 h
Tmax of Atovaquone ([3]; Atovaquone dose 6.166 mg/kg): 19.200 h
Vd of Atovaquone ([3]; Atovaquone dose 6.166 mg/kg): 0.001 L/kg
AUC0-inf of Atovaquone ([3]; Atovaquone dose 6.166 mg/kg (Table 3)): 298501.894 ± 117805.568 ng/hr × mL
AUC0-inf of Atovaquone ([3]; Atovaquone dose 13.005 mg/kg): 472148.864 ng/hrxml
Cmax of Atovaquone ([3]; Atovaquone dose 13.005 mg/kg): 6779.226 ng/mL
MRT of Atovaquone ([3]; Atovaquone dose 13.005 mg/kg): 50.644 h
T1/2 of Atovaquone ([3]; Atovaquone dose 13.005 mg/kg): 29.542 h
Tmax of Atovaquone ([3]; Atovaquone dose 13.005 mg/kg): 12.8 h
Vd of Atovaquone ([3]; Atovaquone dose 13.005 mg/kg): 0.001 L/kg
AUC0-inf of Cycloguanil ([3]; Proguanil dose 4.2642 mg/kg): 38.910 ng/hrxml
AUC0-inf of Proguanil ([3]; Proguanil dose 4.2642 mg/kg): 497.306 ng/hrxml
Cl of Cycloguanil ([3]; Proguanil dose 4.2642 mg/kg): 0.118 L/kg/hr
Cl of Proguanil ([3]; Proguanil dose 4.2642 mg/kg): 0.15 mL/min/kg
Cmax of Cycloguanil ([3]; Proguanil dose 4.2642 mg/kg): 4.667 ng/ml
Cmax of Proguanil ([3]; Proguanil dose 4.2642 mg/kg): 87.400 ng/mL
MRT of Cycloguanil ([3]; Proguanil dose 4.2642 mg/kg): 5.753 hr
MRT of Proguanil ([3]; Proguanil dose 4.2642 mg/kg): 5.581 h
T1/2 of Cycloguanil ([3]; Proguanil dose 4.2642 mg/kg): 5.620 hr
T1/2 of Proguanil ([3]; Proguanil dose 4.2642 mg/kg): 4.779 h
Tmax of Cycloguanil ([3]; Proguanil dose 4.2642 mg/kg): 3.200 hr
Tmax of Proguanil ([3]; Proguanil dose 4.2642 mg/kg): 2.800 h
Vd of Cycloguanil ([3]; Proguanil dose 4.2642 mg/kg): 0.873 L/Kg
Vd of Proguanil ([3]; Proguanil dose 4.2642 mg/kg): 0.061 L/kg
AUC0-inf of Cycloguanil ([3]; Proguanil dose 8.995 mg/kg): 34.797 ng/hrxml
AUC0-inf of Proguanil ([3]; Proguanil dose 8.995 mg/kg): 485.239 ng/hrxml
Cl of Cycloguanil ([3]; Proguanil dose 8.995 mg/kg): 0.261 L/kg/hr
Cl of Proguanil ([3]; Proguanil dose 8.995 mg/kg): 0.317 mL/min/kg
Cmax of Cycloguanil ([3]; Proguanil dose 8.995 mg/kg): 6.954 ng/ml
Cmax of Proguanil ([3]; Proguanil dose 8.995 mg/kg): 94.515 ng/mL
MRT of Cycloguanil ([3]; Proguanil dose 8.995 mg/kg): 5.106 hr
MRT of Proguanil ([3]; Proguanil dose 8.995 mg/kg): 4.933 h
T1/2 of Cycloguanil ([3]; Proguanil dose 8.995 mg/kg): 4.406 hr
T1/2 of Proguanil ([3]; Proguanil dose 8.995 mg/kg): 13.149 h
Tmax of Cycloguanil ([3]; Proguanil dose 8.995 mg/kg): 2.00 hr
Tmax of Proguanil ([3]; Proguanil dose 8.995 mg/kg): 1.15 h
Vd of Cycloguanil ([3]; Proguanil dose 8.995 mg/kg): 1.618 L/Kg
Vd of Proguanil ([3]; Proguanil dose 8.995 mg/kg): 0.349 L/kg
